# According to patent US20240100062A1, “Methods of Treatment With an Iboga Alkaloid” (priority 2022, published 2024):
# How the values were obtained:
# [1] = test system: male veterans with a history of TBI; test: Pseudo-continuous arterial spin labeling MRI, cerebral blood flow (Example 3); type: in vivo, human; conditions: paired t-test across baseline, first post-treatment scan and 1 month post-treatment; p<0.001
# Description: Arterial spin labeling (ASL) MR was used to measure cerebral blood flow in some of the subjects of the subjects enrolled in the study of Example 1. As described in Example 3, pseudo-continuous ASL (pcASL) was performed on the subject at baseline, about 1 week after treatment, and one-month after treatment. […] A first metric of interest was change in net quantity (mL/100 g tissue/min) of blood entering different regions of the brain. Images of the left posterior orbital gyrus, left anterior insula, left and right cerebral white matter at baseline and 1-week post treatment (images not shown) were analyzed and compared. […] A paired t-test across 3 time points—baseline (pre-treatment), 1 week post-treatment, and 1 month post-treatment—was employed.
# A second metric of interest was regression between change in clinical scores versus change in relative cerebral blood perfusion from baseline to one-month post treatment. Multiple regression with clinical scores at baseline and one-month post treatment was used. […]
# A first metric of interest was change in net quantity (mL/100 g tissue/min) of blood entering different regions of the brain. Images of the left posterior orbital gyrus, left anterior insula, left and right cerebral white matter at baseline and 1-2 days post treatment (images not shown) were analyzed and compared. […]
# BDNF and GDNF = conditions: cited from earlier work
# [2] = test system: N-methyl-D-aspartate, kappa and mu opioid, sigma-1 and -2, nicotinic acetylcholine, serotonin transporter, and dopamine transporter; conditions: cited from earlier work
# [3] = test system: special operations veterans; test: Wechsler Adult Intelligence Scale (WAIS-IV) PSI and WMI, Example 1 study; type: in vivo, human
# [4] = test system: special operations veterans; test: Neuropsychological battery overall, Example 1 study; type: in vivo, human; conditions: post treatment time points
# From the text: A summary of the results is in Table 1 and Table 1-6 of Example 1. […] In Table 1, neuropsychological test scores are represented as a T score (mean of 50, SD of 10). Unless stated otherwise, a higher score represents better performance.
# Neuropsychological testing of the enrolled subjects was designed to examine abilities over several domains of cognitive functioning, including estimated intelligence quotient (IQ), verbal fluency, working memory (visual and auditory), long term memory (visual and auditory), processing speed, sustained attention, problem solving, ability to perceive patterns, executive functioning, such as ability to hold and manipulate or update information in the head, inhibition, ability to organize, plan, and develop solutions to problems. In addition, assessments examining cognitive abilities over several domains of functioning were done to evaluate the safety of ibogaine use. […]
# [5] = test system: special operations veterans; test: Brief Visuospatial Memory Test-Revised (BVMT-R), Example 1 study; type: in vivo, human
# [6] = test system: special operations veterans; test: Resting-state fMRI functional connectivity (Example 2); type: in vivo, human; conditions: within a few days after treatment; persisted to one-month post treatment; 5000 pairs tested
# From the text: The human brain is a series of well-organized and optimized series of efficient networks. Disease states can be characterized as abnormalities or inefficiencies in the networks and/or the global organization. Resting-state functional connectivity is one method to characterize disease states and effects of interventions. The functional connectivity networks evaluated in a region of interest in the brain included those identified in Table 2-1 of Example 2.
# The subjects were asked to clear their mind of any particular thoughts in order to capture the brain at rest or in its ‘default’ state. An a priori region of interest was determined for analysis and 5000 functional connectivity pairs were tested. The underlying alteration in brain patterns (connectivity) due to an intervention was evaluated.
# [7] = test system: special operations veterans; test: Predicted brain age from MRI (brain age model); type: in vivo, human
# From the text: A predictive model of normal aging defined using machine learning in healthy individuals, based on magnetic resonance imaging-derived estimates of gray matter and white matter (Id.) was applied to the MRI images from the subjects enrolled in the study of Example 1. […] There was a significant reversal of brain age from baseline to one month after treatment. The mean decrease in brain age was 1.3 years (corrected p=0.03).
# At baseline, the brain age estimate for the 24 subjects was 40.89 years. […] The average decrease in brain age from baseline one month after treatment was 1.4 years.
# [8] = test system: special operations veterans; test: Delis-Kaplan Executive Function System (D-KEFS), Example 1 study; type: in vivo, human
smiles,measurement,setting,value
"CCC1CC2CC3c4[nH]c5ccc(OC)cc5c4CCN(C2)C13 (centres unmarked) [ibogaine, Ibogaine]",Change in absolute cerebral blood flow,[1],No significant changes
same,Transcription of neurotrophic factors including BDNF and GDNF,BDNF and GDNF,increases the transcription of neurotrophic factors
same,Affinity for neurotransmitter receptors,[2],moderate-to-weak affinity
same,"Working Memory (WMI, WAIS-IV), mean ± SD","[3]; 1-wk post, baseline 55.1 ± 8.3, p(FDR) 0.034",57.0 ± 9.5 T score
same,"Working Memory (WMI, WAIS-IV), D",[3]; baseline vs 1-month post,0.31
same,"Processing Speed (PSI, WAIS-IV), D",[3]; baseline vs 1-wk post,0.97
same,"Working Memory (WMI, WAIS-IV), D",[3]; baseline vs 1-wk post,0.37
same,Declines across performance domains,[4],No declines were noted across any performance domain
same,"Visuospatial Memory (BVMT-R), D",[5]; baseline vs 1-month post,0.32
same,"Visuospatial Memory (BVMT-R), D",[5]; baseline vs 1-wk post,0.50
same,Visual memory improvement,[5]; both timepoints,significant improvement in visual memory at both timepoints
same,"Reorganization of functional connection pairs in the brain networks, number of pairs",[6],22
same,Mean decrease in brain age,"[7]; baseline to one month after treatment, corrected p=0.03 (FIG. 9A)",1.3 years
same,Estimated brain age compared to accelerated intermittent theta burst stimulation (aiTBS),[7]; one-month post treatment (FIG. 9D),provided a reducing in estimated brain age one-month post treatment compared to aiTBS
same,"Brain age contrast Estimate, Baseline & 1 wk. vs 1 mo.","[7]; weights .5-.5-1, Sig 0.008, 95% 0.352 to 2.087",1.220 years
same,"Phonemic Fluency (D-KEFS Verbal Fluency), mean ± SD","[8]; 1-mo. post, baseline 57.0 ± 11.7, p(FDR) <0.001",64.0 ± 10.1 T score
same,"Cognitive Flexibility Composite, D",[8]; baseline vs 1-month post,0.74
same,"Cognitive Inhibition (D-KEFS Color/Word Interference, Condition 3), D",[8]; baseline vs 1-month post,0.62
same,"Phonemic Fluency (D-KEFS Verbal Fluency), D",[8]; baseline vs 1-month post,1.11
same,"Problem Solving (D-KEFS TT, Total Achievement Score), D",[8]; baseline vs 1-month post,0.44
same,"Semantic Fluency (D-KEFS Verbal Fluency), D",[8]; baseline vs 1-month post,0.24
same,"Cognitive Flexibility Composite, D",[8]; baseline vs 1-wk post,0.43
same,"Phonemic Fluency (D-KEFS Verbal Fluency), D",[8]; baseline vs 1-wk post,0.52
same,"Problem Solving (D-KEFS TT, Total Achievement Score), D",[8]; baseline vs 1-wk post,0.49
same,"Semantic Fluency (D-KEFS Verbal Fluency), D",[8]; baseline vs 1-wk post,0.02
same,Language (semantic fluency) performance change,[8]; post treatment time points,No significant performance changes
